Measured values from patent US9067914B1, “Tropomyosin-related kinase (TRK) inhibitors” (Genzyme Corporation, priority 2013, dated 2015).
Like-named read-outs stand apart in the source and are kept apart here.

Experiments:
[1] = target: TrkA (Homo sapiens (Human), UniProt P04629); assay: TrkA activity, off-chip mobility shift assay (LabChip 3000); type: biochemical; settings: 55 μM ATP (ATP Km); n/d = none detected
Excerpt: (§1) Reagents and consumables were purchased from Sigma Aldrich, Carna Biosciences, or Caliper Life Sciences. All assay reaction conditions for IC50 determinations were within the linear range with respect to time and enzyme concentration. […] The LabChip 3000 separates and measures the fluorescent signal of fluorescein labeled peptide substrate and fluorescein labeled peptide product present in each well. Results are expressed as percent conversion by measuring peak height for both the substrate and product and dividing the product peak height by the sum of peak heights for both substrate and product.

[2] = target: TrkB (Homo sapiens (Human), UniProt Q16620); assay: TrkB activity, off-chip mobility shift assay (LabChip 3000); type: biochemical
Excerpt: as §1

[3] = 70 μM ATP (ATP Km), n/d = none detected

Chain of TrkB (Q16620 32-822): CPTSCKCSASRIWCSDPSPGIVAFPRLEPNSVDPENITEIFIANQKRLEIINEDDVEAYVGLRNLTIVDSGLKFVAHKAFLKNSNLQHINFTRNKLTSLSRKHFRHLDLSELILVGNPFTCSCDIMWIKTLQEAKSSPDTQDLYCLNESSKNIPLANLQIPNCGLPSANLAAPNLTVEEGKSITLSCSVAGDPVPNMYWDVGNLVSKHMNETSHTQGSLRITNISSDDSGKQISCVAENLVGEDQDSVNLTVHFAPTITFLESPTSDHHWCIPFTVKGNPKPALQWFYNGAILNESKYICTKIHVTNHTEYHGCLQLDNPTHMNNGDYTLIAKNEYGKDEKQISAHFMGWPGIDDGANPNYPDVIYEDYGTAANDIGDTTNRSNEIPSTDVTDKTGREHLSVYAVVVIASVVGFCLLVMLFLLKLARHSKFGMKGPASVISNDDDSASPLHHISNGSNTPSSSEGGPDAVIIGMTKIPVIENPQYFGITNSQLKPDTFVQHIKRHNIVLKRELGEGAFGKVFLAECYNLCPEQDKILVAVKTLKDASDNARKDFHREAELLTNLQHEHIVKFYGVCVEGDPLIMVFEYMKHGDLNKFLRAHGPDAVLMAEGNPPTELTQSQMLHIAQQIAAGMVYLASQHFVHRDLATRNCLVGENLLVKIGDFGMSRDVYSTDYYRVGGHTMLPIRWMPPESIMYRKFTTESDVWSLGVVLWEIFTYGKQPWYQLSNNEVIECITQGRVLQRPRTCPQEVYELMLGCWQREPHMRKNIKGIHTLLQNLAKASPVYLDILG
Chain of TrkA (P04629 33-796): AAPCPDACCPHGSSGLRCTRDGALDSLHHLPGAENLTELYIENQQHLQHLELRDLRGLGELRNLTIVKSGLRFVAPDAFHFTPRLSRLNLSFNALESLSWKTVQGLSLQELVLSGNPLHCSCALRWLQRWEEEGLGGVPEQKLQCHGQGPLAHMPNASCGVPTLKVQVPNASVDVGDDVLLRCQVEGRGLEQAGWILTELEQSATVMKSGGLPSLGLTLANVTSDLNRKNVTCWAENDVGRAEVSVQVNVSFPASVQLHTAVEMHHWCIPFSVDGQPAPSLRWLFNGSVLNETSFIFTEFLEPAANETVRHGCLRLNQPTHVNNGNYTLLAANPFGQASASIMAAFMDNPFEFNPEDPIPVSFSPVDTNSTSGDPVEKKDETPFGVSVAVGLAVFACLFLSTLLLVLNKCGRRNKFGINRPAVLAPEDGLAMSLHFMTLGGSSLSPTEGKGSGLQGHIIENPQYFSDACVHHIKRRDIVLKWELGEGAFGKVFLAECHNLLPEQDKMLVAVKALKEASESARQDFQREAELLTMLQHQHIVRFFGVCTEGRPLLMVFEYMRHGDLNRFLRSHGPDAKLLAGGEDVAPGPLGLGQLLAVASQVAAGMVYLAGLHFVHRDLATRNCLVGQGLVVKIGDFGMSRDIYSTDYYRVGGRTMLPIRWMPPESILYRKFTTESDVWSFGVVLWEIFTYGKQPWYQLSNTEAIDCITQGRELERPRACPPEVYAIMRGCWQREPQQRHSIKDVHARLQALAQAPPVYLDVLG

Row | IC50 [1] | IC50 [2, 3] | IC50 [2] | Structure (SMILES)
1 | 0.3 nM |  |  | COc1cc([C@H](C)n2c(N)nc3cc(-c4cnn(C)c4)cnc32)ccc1OCc1ccc(C(F)(F)F)cc1 (single isomer, unassigned) [Ex. 3-49-6a, 3-(1-(3-methoxy-4-((4-(trifluoromethyl)benzyl)oxy)phenyl)ethyl)-6-(1-methyl-1H-pyrazol-4-yl)-3H-imidazo[4,5-b]pyridin-2-amine]
2 | 5 nM |  |  | COc1cc([C@@H](C)n2c(N)nc3cc(-c4cnn(C)c4)cnc32)ccc1OCc1ccc(C(F)(F)F)cc1 (single isomer, unassigned) [Ex. 3-49-6b, 3-(1-(3-methoxy-4-((4-(trifluoromethyl)benzyl)oxy)phenyl)ethyl)-6-(1-methyl-1H-pyrazol-4-yl)-3H-imidazo[4,5-b]pyridin-2-amine]
3 | 32 nM | 26 nM |  | CCC(Oc1ccc(Cn2c(N)nc3cc(-c4cnn(C)c4)cnc32)cc1OC)c1ccc(OC)nc1 (centres unmarked) [3-34, 3-(3-methoxy-4-(1-(6-methoxypyridin-3-yl)propoxy)benzyl)-6-(1-methyl-1H-pyrazol-4-yl)-3H-imidazo[4,5-b]pyridin-2-amine]
4 | 1 nM | 0.5 nM |  | COc1ccc(COc2ccc(Cn3c(N)nc4cc(-c5cnn(C)c5)ccc43)cc2OC)cc1 [Ex. 3-1, 1-(3-Methoxy-4-((4-methoxybenzyl)oxy)benzyl)-5-(1-methyl-1H-pyrazol-4-yl)-1H-benzo[d]imidazol-2-amine]
5 | 86 nM | 23 nM |  | COc1ccc(COc2ccc(Cn3c(N)nc4cc(-c5cncnc5)ccc43)cc2OC)cc1 [Ex. 3-2-1, 1-(3-Methoxy-4-((4-methoxybenzyl)oxy)benzyl)-5-(pyrimidin-5-yl)-1H-benzo[d]imidazol-2-amine]
6 | 8 nM | 4 nM |  | COc1ccc(COc2ccc(Cn3c(N)nc4cc(-c5ccncc5)ccc43)cc2OC)cc1 [Ex. 3-2-2, 1-(3-Methoxy-4-((4-methoxybenzyl)oxy)benzyl)-5-(pyridine-4-yl)-1H-benzo[d]imidazol-2-amine]
7 | 3 nM | 1 nM |  | COc1ccc(COc2ccc(Cn3c(N)nc4cc(-c5cnn(CCN6CCOCC6)c5)ccc43)cc2OC)cc1 [Ex. 3-2-3, 1-(3-Methoxy-4-((4-methoxybenzyl)oxy)benzyl)-5-(1-(2-morpholinoethyl)-1H-pyrazol-4-yl)-1H-benzo[d]imidazol-2-amine]
8 | 7 nM | 6 nM |  | COc1ccc(COc2ccc(Cn3c(N)nc4cc(-c5ccc(P(C)(C)=O)nc5)ccc43)cc2OC)cc1 [Ex. 3-3, (5-(2-Amino-1-(3-methoxy-4-((4-methoxybenzyl)oxy)benzyl)-1H-benzo[d]imidazol-5-yl)pyridin-2-yl)dimethylphosphine oxide]
9 | 175 nM | 86 nM |  | COc1ccc(COc2ccc(Cn3cnc4cc(-n5cc(C6CCCNC6)nn5)ccc43)cc2OC)cn1 (centres unmarked) [Ex. 3-6, 1-(3-Methoxy-4-((6-methoxypyridin-3-yl)methoxy)benzyl)-5-(4-(piperidin-3-yl)-1H-1,2,3-triazol-1-yl)-1H-benzo[d]imidazole]
10 | 11100 nM | 3460 nM |  | COc1ccc(COc2ccc(Cn3cnc4cc(C5CCNCC5)ccc43)cc2OC)cn1 [Ex. 3-8, 1-(3-Methoxy-4-((6-methoxypyridin-3-yl)methoxy)benzyl)-5-(piperidin-4-yl)-1H-benzo[d]imidazole]
11 | 793 nM |  | 257 nM | COc1ccc(COc2ccc(Cn3cnc4cc(N5CCOCC5)ccc43)cc2OC)cn1 [Ex. 3-9, 4-(1-(3-Methoxy-4-((6-methoxypyridin-3-yl)methoxy)benzyl)-1H-benzo[d]imidazol-5-yl)morpholine]
12 | 652 nM | 574 nM |  | COc1ccc(COc2ccc(Cn3cnc4cc(N5CCC(C(C)(C)N)CC5)ccc43)cc2OC)cn1 [Ex. 3-10, 2-(1-(1-(3-Methoxy-4-((6-methoxypyridin-3-yl)methoxy)benzyl)-1H-benzo[d]imidazol-5-yl)piperidin-4-yl)propan-2-amine]
13 | 135 nM | 120 nM |  | COc1ccc(COc2ccc(Cn3cnc4cc(N5CC6(CCNCC6)C5)ccc43)cc2OC)cn1 [Ex. 3-11, 1-(3-methoxy-4-((6-methoxypyridin-3-yl)methoxy)benzyl)-5-(2,7-diazaspiro[3.5]nonan-2-yl)-1H-benzo[d]imidazole]
14 | 1030 nM | 637 nM |  | COc1ccc(COc2ccc(Cn3cnc4cc(N5CCC(N)CC5)ccc43)cc2OC)cn1 [Ex. 3-12, 1-(1-(3-Methoxy-4-((6-methoxypyridin-3-yl)methoxy)benzyl)-1H-benzo[d]imidazol-5-yl)piperidin-4-amine]
15 | 1130 nM | 443 nM |  | COc1ccc(COc2ccc(Cn3cnc4cc(N5CCN(C)CC5)ccc43)cc2OC)cn1 [Ex. 3-13, 1-(3-Methoxy-4-((6-methoxypyridin-3-yl)methoxy)benzyl)-5-(4-methylpiperazin-1-yl)-1H-benzo[d]imidazole]
16 | 8980 nM | 4370 nM |  | COc1ccc(COc2ccc(Cn3c(N)nc4cc(N5CCN(C)CC5=O)ccc43)cc2OC)cn1 [Ex. 3-14, 1-(2-Amino-1-(3-methoxy-4-((6-methoxypyridin-3-yl)methoxy)benzyl)-1H-benzo[d]imidazol-5-yl)-4-methylpiperazin-2-one]
17 | 0.5 nM | 0.2 nM |  | COc1ccc(COc2ccc(Cn3c(N)nc4cc(-c5ccc(P(C)(C)=O)nc5)cnc43)cc2OC)cc1 [Ex. 3-16, (5-(2-Amino-3-(3-methoxy-4-((4-methoxybenzyl)oxy)benzyl)-3H-imidazo[4,5-b]pyridin-6-yl)pyridin-2-yl)dimethylphosphine oxide]
18 | 54 nM | 57 nM |  | COc1ccc(COc2ccc(Cn3cnc4cc(N5CCC(C(C)(C)N)CC5)cnc43)cc2OC)cn1 [Ex. 3-18-1, 2-(1-(3-(3-Methoxy-4-((6-methoxypyridin-3-yl)methoxy)benzyl)-3H-imidazo[4,5-b]pyridin-6-yl)piperidin-4-yl)propan-2-amine]
19 | 90 nM | 31 nM |  | COc1ccc(COc2ccc(Cn3cnc4cc(N5CCOCC5)cnc43)cc2OC)cn1 [Ex. 3-18-2, 4-(3-(3-Methoxy-4-((6-methoxypyridin-3-yl)methoxy)benzyl)-3H-imidazo[4,5-b]pyridin-6-yl)morpholine]
20 | 113 nM | 52 nM |  | COc1ccc(COc2ccc(Cn3cnc4cc(N5CCN(C6CC6)CC5)cnc43)cc2OC)cn1 [Ex. 3-18-3, 6-(4-Cyclopropylpiperazin-1-yl)-3-(3-methoxy-4-((6-methoxypyridin-3-yl)methoxy)benzyl)-3H-imidazo[4,5-b]pyridine]
21 | 470 nM | 349 nM |  | COc1ccc(COc2ccc(Cn3cnc4cc(N5CCN6CCC5CC6)cnc43)cc2OC)cn1 [Ex. 3-18-4, 4-(3-(3-Methoxy-4-((6-methoxypyridin-3-yl)methoxy)benzyl)-3H-imidazo[4,5-b]pyridin-6-yl)-1,4-diazabicyclo[3.2.2]nonane]
22 | 25 nM | 21 nM |  | COc1ccc(COc2ccc(Cn3cnc4cc(N5CC6(CCNCC6)C5)cnc43)cc2OC)cn1 [Ex. 3-18-5, 3-(3-Methoxy-4-((6-methoxypyridin-3-yl)methoxy)benzyl)-6-(2,7-diazaspiro[3.5]nonan-2-yl)-3H-imidazo[4,5-b]pyridine]
23 | 232 nM | 133 nM |  | COc1ccc(COc2ccc(Cn3cnc4cc(N5CCC(N)CC5)cnc43)cc2OC)cn1 [Ex. 3-18-6, 1-(3-(3-Methoxy-4-((6-methoxypyridin-3-yl)methoxy)benzyl)-3H-imidazo[4,5-b]pyridin-6-yl)piperidin-4-amine]
